Assay results taken from ChEMBL document CHEMBL3885861, “Open TG-GATES”.

Species: Rattus norvegicus
Assay: Open TG-GATES - Regimen: Daily Repeat
Assay type: toxicity, organism-based, Sprague-Dawley
Parameters: regimen Daily Repeat, gender Male, age 6 weeks
Conditions: in vivo, po, 50 mg/kg, route gavage, dose level Middle; for APTT / Bas / Eos / Fbg / Hb / Ht / Lym / MCH / MCHC / MCV / Mono / Neu / PT / Plat / RBC / Ret / WBC: tissue Blood; for KIDNEY_L / KIDNEY_R / KIDNEY_TOTAL: tissue Kidney; for LIVER: tissue Liver; for ALP / ALT / AST / BUN / CRE / Ca / DBIL / GLC / IP / K / LDH / Na / PL / RALB / TBIL / TC / TP / gamma-GTP / TG: tissue Plasma

Q: For `Oc1ncnc2[nH]ncc12` [ALLOPURINOL], which APTT (72 h, time 3 day) is on record?
A: 16.2 s

Q: And the Bas (72 h, time 3 day)?
A: 0%

Q: What about the Eos (72 h, time 3 day) of the same compound?
A: 1.4%

Q: And the Fbg (72 h, time 3 day)?
A: 261.6 mg/dL

Q: And the Hb (72 h, time 3 day)?
A: 13.5 g/dL

Q: What about the Ht (72 h, time 3 day) of the same compound?
A: 40%

Q: What about the Lym (72 h, time 3 day) of the same compound?
A: 75%

Q: And the MCH (72 h, time 3 day)?
A: 21.9 pg

Q: What about the MCHC (72 h, time 3 day) of the same compound?
A: 33.7%

Q: What about the MCV (72 h, time 3 day) of the same compound?
A: 64.9 fL

Q: What about the Mono (72 h, time 3 day) of the same compound?
A: 9.2%

Q: And the Neu (72 h, time 3 day)?
A: 14.4%

Q: What about the PT (72 h, time 3 day) of the same compound?
A: 12.3 s

Q: And the Plat (72 h, time 3 day)?
A: 108.7 x10_4/uL

Q: And the RBC (72 h, time 3 day)?
A: 618 x10_4/ul

Q: And the Ret (72 h, time 3 day)?
A: 6.3%

Q: And the WBC (72 h, time 3 day)?
A: 139.1 x10_2/uL

Q: What about the KIDNEY_L (72 h, time 3 day) of the same compound?
A: 1.2 g

Q: What about the KIDNEY_R (72 h, time 3 day) of the same compound?
A: 1.2 g

Q: What about the KIDNEY_TOTAL (72 h, time 3 day) of the same compound?
A: 2.3 g

Q: What about the LIVER (72 h, time 3 day) of the same compound?
A: 11.5 g

Q: What about the ALP (72 h, time 3 day) of the same compound?
A: 918 IU/L

Q: What about the ALT (72 h, time 3 day) of the same compound?
A: 33.8 IU/L

Q: And the AST (72 h, time 3 day)?
A: 65.8 IU/L

Q: What about the BUN (72 h, time 3 day) of the same compound?
A: 20.6 mg/dL

Q: And the CRE (72 h, time 3 day)?
A: 0.5 mg/dL

Q: What about the Ca (72 h, time 3 day) of the same compound?
A: 11.1 mg/dL

Q: What about the DBIL (72 h, time 3 day) of the same compound?
A: 0.004 mg/dL

Q: And the GLC (72 h, time 3 day)?
A: 194.4 mg/dL

Q: And the IP (72 h, time 3 day)?
A: 7 mg/dL

Q: And the K (72 h, time 3 day)?
A: 4.7 meq/L

Q: What about the LDH (72 h, time 3 day) of the same compound?
A: 111.4 IU/L

Q: What about the Na (72 h, time 3 day) of the same compound?
A: 138.2 meq/L

Q: And the PL (72 h, time 3 day)?
A: 150 mg/dL

Q: What about the RALB (72 h, time 3 day) of the same compound?
A: 3.9 g/dL

Q: And the TBIL (72 h, time 3 day)?
A: 0.3 mg/dL

Q: What about the TC (72 h, time 3 day) of the same compound?
A: 79.4 mg/dL

Q: And the TP (72 h, time 3 day)?
A: 6.1 g/dL

Q: And the gamma-GTP (72 h, time 3 day)?
A: 2 IU/L

Q: What about the TERMINAL_BW ([…], time 7 day) of the same compound?
A: 270.7 g

Q: What about the TERMINAL_BW ([…], time 14 day) of the same compound?
A: 308.6 g

Q: And the TERMINAL_BW ([…], time 28 day)?
A: 380.1 g

Q: What about the APTT ([…], time 7 day) of the same compound?
A: 16.4 s

Q: And the Bas ([…], time 7 day)?
A: 0%

Q: What about the Eos ([…], time 7 day) of the same compound?
A: 0.4%

Q: What about the Fbg ([…], time 7 day) of the same compound?
A: 246 mg/dL

Q: And the Hb ([…], time 7 day)?
A: 14.2 g/dL

Q: What about the Ht ([…], time 7 day) of the same compound?
A: 42.3%

Q: What about the Lym ([…], time 7 day) of the same compound?
A: 86.4%

Q: What about the MCH ([…], time 7 day) of the same compound?
A: 21.4 pg

Q: What about the MCHC ([…], time 7 day) of the same compound?
A: 33.6%

Q: What about the MCV ([…], time 7 day) of the same compound?
A: 63.9 fL

Q: And the Mono ([…], time 7 day)?
A: 3.8%

Q: And the Neu ([…], time 7 day)?
A: 9.4%

Q: What about the PT ([…], time 7 day) of the same compound?
A: 11.8 s

Q: And the Plat ([…], time 7 day)?
A: 120 x10_4/uL

Q: What about the RBC ([…], time 7 day) of the same compound?
A: 661.2 x10_4/ul

Q: What about the Ret ([…], time 7 day) of the same compound?
A: 5.3%

Q: What about the WBC ([…], time 7 day) of the same compound?
A: 129.4 x10_2/uL

Q: And the APTT ([…], time 14 day)?
A: 16.5 s

Q: And the Bas ([…], time 14 day)?
A: 0%

Q: What about the Eos ([…], time 14 day) of the same compound?
A: 0.6%

Q: And the Fbg ([…], time 14 day)?
A: 232.2 mg/dL

Q: And the Hb ([…], time 14 day)?
A: 14.9 g/dL

Q: What about the Ht ([…], time 14 day) of the same compound?
A: 44.6%

Q: And the Lym ([…], time 14 day)?
A: 84%

Q: And the MCH ([…], time 14 day)?
A: 20.8 pg

Q: And the MCHC ([…], time 14 day)?
A: 33.4%

Q: What about the MCV ([…], time 14 day) of the same compound?
A: 62.2 fL

Q: And the Mono ([…], time 14 day)?
A: 3.6%

Q: And the Neu ([…], time 14 day)?
A: 12.2%

Q: What about the PT ([…], time 14 day) of the same compound?
A: 11.9 s

Q: And the Plat ([…], time 14 day)?
A: 111.6 x10_4/uL

Q: And the RBC ([…], time 14 day)?
A: 716 x10_4/ul

Q: What about the Ret ([…], time 14 day) of the same compound?
A: 4.2%

Q: What about the WBC ([…], time 14 day) of the same compound?
A: 114 x10_2/uL

Q: And the APTT ([…], time 28 day)?
A: 16.8 s

Q: What about the Bas ([…], time 28 day) of the same compound?
A: 0%

Q: What about the Eos ([…], time 28 day) of the same compound?
A: 1%

Q: And the Fbg ([…], time 28 day)?
A: 225.6 mg/dL

Q: And the Hb ([…], time 28 day)?
A: 15.2 g/dL

Q: What about the Ht ([…], time 28 day) of the same compound?
A: 45%

Q: And the Lym ([…], time 28 day)?
A: 78.8%

Q: And the MCH ([…], time 28 day)?
A: 19.8 pg

Q: What about the MCHC ([…], time 28 day) of the same compound?
A: 33.8%

Q: And the MCV ([…], time 28 day)?
A: 58.5 fL

Q: And the Mono ([…], time 28 day)?
A: 4.8%

Q: What about the Neu ([…], time 28 day) of the same compound?
A: 15.6%

Q: And the PT ([…], time 28 day)?
A: 12.1 s

Q: What about the Plat ([…], time 28 day) of the same compound?
A: 101.2 x10_4/uL

Q: And the RBC ([…], time 28 day)?
A: 770.4 x10_4/ul

Q: What about the Ret ([…], time 28 day) of the same compound?
A: 2.9%

Q: What about the WBC ([…], time 28 day) of the same compound?
A: 128.2 x10_2/uL

Q: And the KIDNEY_L ([…], time 7 day)?
A: 1.2 g

Q: What about the KIDNEY_R ([…], time 7 day) of the same compound?
A: 1.2 g

Q: What about the KIDNEY_TOTAL ([…], time 7 day) of the same compound?
A: 2.4 g

Q: And the KIDNEY_L ([…], time 14 day)?
A: 1.3 g

Q: What about the KIDNEY_R ([…], time 14 day) of the same compound?
A: 1.3 g

Q: And the KIDNEY_TOTAL ([…], time 14 day)?
A: 2.5 g

Q: What about the KIDNEY_L ([…], time 28 day) of the same compound?
A: 1.5 g

Q: What about the KIDNEY_R ([…], time 28 day) of the same compound?
A: 1.5 g

Q: And the KIDNEY_TOTAL ([…], time 28 day)?
A: 3.1 g

Q: What about the LIVER ([…], time 7 day) of the same compound?
A: 13.3 g

Q: What about the LIVER ([…], time 14 day) of the same compound?
A: 14 g

Q: And the LIVER ([…], time 28 day)?
A: 15.1 g

Q: What about the ALP ([…], time 7 day) of the same compound?
A: 917.6 IU/L

Q: And the ALT ([…], time 7 day)?
A: 33.4 IU/L

Q: And the AST ([…], time 7 day)?
A: 64 IU/L

Q: And the BUN ([…], time 7 day)?
A: 20.2 mg/dL

Q: And the CRE ([…], time 7 day)?
A: 0.5 mg/dL

Q: And the Ca ([…], time 7 day)?
A: 11.4 mg/dL

Q: What about the DBIL ([…], time 7 day) of the same compound?
A: 0.034 mg/dL

Q: What about the GLC ([…], time 7 day) of the same compound?
A: 207.2 mg/dL

Q: What about the IP ([…], time 7 day) of the same compound?
A: 7.6 mg/dL

Q: What about the K ([…], time 7 day) of the same compound?
A: 4.3 meq/L

Q: What about the LDH ([…], time 7 day) of the same compound?
A: 87 IU/L

Q: What about the Na ([…], time 7 day) of the same compound?
A: 140.2 meq/L

Q: And the PL ([…], time 7 day)?
A: 158.2 mg/dL

Q: What about the RALB ([…], time 7 day) of the same compound?
A: 3.9 g/dL

Q: What about the TBIL ([…], time 7 day) of the same compound?
A: 0.3 mg/dL

Q: And the TC ([…], time 7 day)?
A: 74.4 mg/dL

Q: What about the TG ([…], time 7 day) of the same compound?
A: 144.4 mg/dL

Q: What about the TP ([…], time 7 day) of the same compound?
A: 6.1 g/dL

Q: And the gamma-GTP ([…], time 7 day)?
A: 1.2 IU/L

Q: What about the ALP ([…], time 14 day) of the same compound?
A: 645.2 IU/L

Q: What about the ALT ([…], time 14 day) of the same compound?
A: 29.8 IU/L

Q: What about the AST ([…], time 14 day) of the same compound?
A: 63 IU/L

Q: And the BUN ([…], time 14 day)?
A: 20.2 mg/dL

Q: What about the CRE ([…], time 14 day) of the same compound?
A: 0.6 mg/dL

Q: And the DBIL ([…], time 14 day)?
A: 0.002 mg/dL

Q: And the GLC ([…], time 14 day)?
A: 200 mg/dL

Q: And the IP ([…], time 14 day)?
A: 7.5 mg/dL

Q: What about the K ([…], time 14 day) of the same compound?
A: 4.5 meq/L

Q: What about the LDH ([…], time 14 day) of the same compound?
A: 71.2 IU/L

Q: And the Na ([…], time 14 day)?
A: 139.6 meq/L

Q: What about the PL ([…], time 14 day) of the same compound?
A: 147.4 mg/dL

Q: What about the RALB ([…], time 14 day) of the same compound?
A: 3.8 g/dL

Q: What about the TBIL ([…], time 14 day) of the same compound?
A: 0.3 mg/dL

Q: And the TC ([…], time 14 day)?
A: 65.8 mg/dL

Q: What about the TG ([…], time 14 day) of the same compound?
A: 131.2 mg/dL

Q: What about the TP ([…], time 14 day) of the same compound?
A: 6.2 g/dL

Q: And the gamma-GTP ([…], time 14 day)?
A: 1.6 IU/L

Q: And the ALP ([…], time 28 day)?
A: 574.8 IU/L

Q: And the ALT ([…], time 28 day)?
A: 29.2 IU/L

Q: And the AST ([…], time 28 day)?
A: 60.6 IU/L

Q: What about the BUN ([…], time 28 day) of the same compound?
A: 22 mg/dL

Q: And the CRE ([…], time 28 day)?
A: 0.6 mg/dL

Q: And the DBIL ([…], time 28 day)?
A: 0.014 mg/dL

Q: What about the GLC ([…], time 28 day) of the same compound?
A: 187.4 mg/dL

Q: What about the IP ([…], time 28 day) of the same compound?
A: 6.3 mg/dL

Q: And the K ([…], time 28 day)?
A: 4.6 meq/L

Q: What about the LDH ([…], time 28 day) of the same compound?
A: 63.6 IU/L

Q: What about the Na ([…], time 28 day) of the same compound?
A: 139.4 meq/L

Q: And the PL ([…], time 28 day)?
A: 145.8 mg/dL

Q: And the RALB ([…], time 28 day)?
A: 4 g/dL

Q: And the TBIL ([…], time 28 day)?
A: 0.3 mg/dL

Q: And the TC ([…], time 28 day)?
A: 66 mg/dL

Q: And the TG ([…], time 28 day)?
A: 147 mg/dL

Q: And the TP ([…], time 28 day)?
A: 6.3 g/dL
